From ChEMBL document CHEMBL1201862, “PubChem BioAssay data set” (2004)
Values belong to the molecule of their own block, whether it stands above or below them. Active and inactive are the calls of the source.

How the values were obtained:
[1] = reduced cellular PGC1a acetyl-lysine signal – cell-based, cherry-picked samples, dose response (AID 720514); type: functional;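 also: potency may reflect raised or lowered acetylation signal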
[2] = target: T1, High affinity choline transporter 1 (Homo sapiens, UniProt Q9GZV3); experiment: human choline transporter blockers, potency – cell-based, 5-point CRC, membrane potential dye, dose response (AID 504840); type: functional
T1 sequence (Q9GZV3 whole entry): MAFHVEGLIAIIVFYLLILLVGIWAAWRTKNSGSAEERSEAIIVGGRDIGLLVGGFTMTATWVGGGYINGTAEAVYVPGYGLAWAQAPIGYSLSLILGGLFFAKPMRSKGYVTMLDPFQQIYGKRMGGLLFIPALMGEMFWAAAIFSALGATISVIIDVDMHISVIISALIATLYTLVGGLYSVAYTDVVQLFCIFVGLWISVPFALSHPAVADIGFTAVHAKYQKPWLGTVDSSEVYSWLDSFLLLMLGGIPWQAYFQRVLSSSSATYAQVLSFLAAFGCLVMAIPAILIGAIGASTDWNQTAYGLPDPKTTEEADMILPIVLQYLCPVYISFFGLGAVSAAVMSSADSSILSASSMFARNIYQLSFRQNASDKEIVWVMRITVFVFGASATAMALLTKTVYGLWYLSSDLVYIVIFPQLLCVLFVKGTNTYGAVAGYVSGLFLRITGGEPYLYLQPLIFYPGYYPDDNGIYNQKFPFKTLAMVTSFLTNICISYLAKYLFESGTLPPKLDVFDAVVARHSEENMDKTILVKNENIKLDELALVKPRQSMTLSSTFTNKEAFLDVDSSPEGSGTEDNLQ

[3] = target: 26S proteasome non-ATPase regulatory subunit 14 (Homo sapiens, UniProt O00487); experiment: inhibition of proteasome subunit RPN11 – biochemical, fluorescence polarization, uHTS hits, confirmation (AID 602368); type: functional
Chain of 26S proteasome non-ATPase regulatory subunit 14 (O00487 whole entry): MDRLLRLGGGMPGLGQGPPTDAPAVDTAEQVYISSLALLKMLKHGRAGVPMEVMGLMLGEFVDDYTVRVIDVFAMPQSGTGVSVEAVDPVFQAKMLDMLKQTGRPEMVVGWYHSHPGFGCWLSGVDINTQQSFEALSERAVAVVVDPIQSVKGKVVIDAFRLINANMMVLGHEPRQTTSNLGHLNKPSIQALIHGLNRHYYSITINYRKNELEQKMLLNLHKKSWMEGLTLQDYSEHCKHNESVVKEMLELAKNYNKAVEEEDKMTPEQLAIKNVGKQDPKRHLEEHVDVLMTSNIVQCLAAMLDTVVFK

[4] = target: 72 kDa type IV collagenase (Homo sapiens, UniProt P08253); experiment: Dose Response validation of uHTS RPN11 inhibitor hits using a MMP-2 Fluorescence assay.; type: functional
Chain of 72 kDa type IV collagenase (P08253 whole entry): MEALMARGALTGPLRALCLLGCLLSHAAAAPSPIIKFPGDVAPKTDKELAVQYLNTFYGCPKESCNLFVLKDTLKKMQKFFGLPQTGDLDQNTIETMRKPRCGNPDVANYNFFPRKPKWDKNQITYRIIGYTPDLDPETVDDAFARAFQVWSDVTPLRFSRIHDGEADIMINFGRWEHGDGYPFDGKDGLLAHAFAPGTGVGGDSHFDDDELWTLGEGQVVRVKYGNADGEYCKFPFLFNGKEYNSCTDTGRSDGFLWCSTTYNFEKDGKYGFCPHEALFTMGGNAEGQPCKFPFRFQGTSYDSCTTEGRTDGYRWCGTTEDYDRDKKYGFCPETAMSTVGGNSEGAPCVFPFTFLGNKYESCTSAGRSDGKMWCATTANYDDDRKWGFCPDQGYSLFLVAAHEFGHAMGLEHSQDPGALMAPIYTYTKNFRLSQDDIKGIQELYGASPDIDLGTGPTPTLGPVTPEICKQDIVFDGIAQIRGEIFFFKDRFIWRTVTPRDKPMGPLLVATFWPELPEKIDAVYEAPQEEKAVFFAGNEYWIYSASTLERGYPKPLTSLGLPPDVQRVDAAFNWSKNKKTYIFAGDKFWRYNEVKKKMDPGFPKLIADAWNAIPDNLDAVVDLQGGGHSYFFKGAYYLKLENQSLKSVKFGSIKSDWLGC

[5] = target: Prothrombin (Bos taurus, UniProt P00735); experiment: thrombin protease inhibitors – biochemical, fluorescence polarization, uHTS hits, dose response (AID 602369); type: functional
[6] = target: Prothrombin (Homo sapiens, UniProt P00734); experiment: Thrombin 1536 HTS Dose Response Confirmation. [Related pubchem assays: 1046 (Thrombin 1536 HTS; hits were confirmed in this assay)]; type: functional
[7] = target: T2, Aspartyl aminopeptidase (Plasmodium falciparum 3D7, UniProt Q8I2J3)
T2 sequence (Q8I2J3 whole entry): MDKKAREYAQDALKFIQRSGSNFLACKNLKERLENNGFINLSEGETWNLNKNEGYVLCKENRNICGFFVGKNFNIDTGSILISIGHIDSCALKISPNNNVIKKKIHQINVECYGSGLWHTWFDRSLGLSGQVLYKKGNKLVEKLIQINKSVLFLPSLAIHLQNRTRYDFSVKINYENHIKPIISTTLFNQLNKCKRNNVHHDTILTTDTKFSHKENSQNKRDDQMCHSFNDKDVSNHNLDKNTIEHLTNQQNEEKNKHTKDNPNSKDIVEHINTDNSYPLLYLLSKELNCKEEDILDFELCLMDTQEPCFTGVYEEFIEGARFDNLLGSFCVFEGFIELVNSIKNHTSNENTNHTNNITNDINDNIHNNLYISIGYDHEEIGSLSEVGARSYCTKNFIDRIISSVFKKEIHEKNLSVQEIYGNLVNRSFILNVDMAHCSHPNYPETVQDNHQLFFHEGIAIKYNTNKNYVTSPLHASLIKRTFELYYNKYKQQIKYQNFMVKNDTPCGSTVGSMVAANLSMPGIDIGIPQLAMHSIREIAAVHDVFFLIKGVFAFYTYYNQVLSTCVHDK

[8] = target: Procathepsin L (Homo sapiens, UniProt P07711)
Chain of Procathepsin L (P07711 whole entry): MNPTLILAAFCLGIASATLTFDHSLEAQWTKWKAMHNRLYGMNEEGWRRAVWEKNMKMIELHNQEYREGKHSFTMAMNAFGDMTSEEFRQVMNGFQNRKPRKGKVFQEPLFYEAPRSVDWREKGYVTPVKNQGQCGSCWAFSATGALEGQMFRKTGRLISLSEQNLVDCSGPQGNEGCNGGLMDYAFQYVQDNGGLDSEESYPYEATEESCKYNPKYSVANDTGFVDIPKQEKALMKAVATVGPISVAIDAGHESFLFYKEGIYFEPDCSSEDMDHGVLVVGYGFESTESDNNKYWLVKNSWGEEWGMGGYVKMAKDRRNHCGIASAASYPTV

[9] = HPDE-C7 pancreatic duct cell viability loss – fluorescence, HTS (AID 430); type: functional, cell-based; details: Homo sapiens
[10] = viability loss of HPDE-C7K cells – cell-based, fluorescence, HTS, primary screen (AID 431); type: functional; details: Homo sapiens
[11] = target: T3, Carboxy-terminal domain RNA polymerase II polypeptide A small phosphatase 1 (Homo sapiens, UniProt Q9GZU7); experiment: CTDSP1 inhibitors, concentration-response, biochemical, absorbance readout, ultra-high-throughput screen actives (AID 540297); type: functional
T3 sequence (Q9GZU7 whole entry): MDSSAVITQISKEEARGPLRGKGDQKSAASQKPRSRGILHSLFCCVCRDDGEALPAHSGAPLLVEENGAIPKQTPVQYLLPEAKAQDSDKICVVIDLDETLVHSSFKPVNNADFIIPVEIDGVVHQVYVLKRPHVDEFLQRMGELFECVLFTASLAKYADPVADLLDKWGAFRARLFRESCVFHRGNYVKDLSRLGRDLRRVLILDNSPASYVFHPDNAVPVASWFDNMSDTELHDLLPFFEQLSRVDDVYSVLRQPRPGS

[12] = target: T4, RNA-binding protein pos-1 (Caenorhabditis elegans, UniProt G5EF15); experiment: disruptors of C. elegans POS-1 RNA interaction – biochemical, fluorescence polarization, dose response (AID 1964);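 also: purified POS-1 fused to maltose binding protein made in E. coli; potency of compounds blocking POS-1 binding to fluorescent RNA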
T4 sequence (G5EF15 whole entry): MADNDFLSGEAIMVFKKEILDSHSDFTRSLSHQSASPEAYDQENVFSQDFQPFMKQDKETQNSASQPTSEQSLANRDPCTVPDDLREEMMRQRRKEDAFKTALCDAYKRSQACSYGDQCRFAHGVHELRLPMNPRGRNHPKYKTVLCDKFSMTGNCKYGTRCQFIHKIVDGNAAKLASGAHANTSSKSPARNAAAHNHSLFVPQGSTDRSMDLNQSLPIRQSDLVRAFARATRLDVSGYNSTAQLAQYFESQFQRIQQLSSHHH

[13] = target: T5, Zinc finger protein mex-5 (Caenorhabditis elegans, UniProt Q9XUB2); experiment: potency of MEX-5 RNA-binding blockers – biochemical, C. elegans, fluorescence polarization, dose response (AID 1960)
T5 sequence (Q9XUB2 whole entry): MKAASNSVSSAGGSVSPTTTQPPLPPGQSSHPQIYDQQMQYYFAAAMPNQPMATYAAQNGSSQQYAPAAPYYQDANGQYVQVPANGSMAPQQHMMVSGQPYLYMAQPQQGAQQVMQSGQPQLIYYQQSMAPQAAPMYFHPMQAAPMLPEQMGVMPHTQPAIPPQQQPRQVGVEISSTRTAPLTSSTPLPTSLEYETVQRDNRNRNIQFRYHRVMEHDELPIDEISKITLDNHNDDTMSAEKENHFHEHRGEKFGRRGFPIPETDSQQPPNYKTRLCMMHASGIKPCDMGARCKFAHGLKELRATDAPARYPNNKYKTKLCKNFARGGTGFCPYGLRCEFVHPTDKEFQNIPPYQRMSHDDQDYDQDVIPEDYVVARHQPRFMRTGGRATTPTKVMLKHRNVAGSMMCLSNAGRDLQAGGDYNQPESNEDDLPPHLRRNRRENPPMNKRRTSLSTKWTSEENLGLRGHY

SMILES: Cc1noc(C)c1CSc1nnc(-c2cccnc2)n1C1CCCCC1C (configuration not stated)
- AC50 [1]: 28.4 µM (active)

SMILES: Cc1cc(C)nc(SCc2cc(=O)c(OC(=O)c3ccc(Br)o3)co2)n1
- IC50 [2]: 14.5 µM (active)

SMILES: Cc1c(NS(=O)(=O)c2ccc(Cl)c(C(=O)OCC(=O)NCc3ccco3)c2)c(=O)n(-c2ccccc2)n1C
- IC50 [6]: > 50 µM (not active)

SMILES: COC(=O)c1ccccc1NC(=O)c1cc(-c2cccs2)on1
- EC50 [9]: > 20 µM (not active)
- EC50 [10]: > 20 µM (not active)

SMILES: COc1cc(CN2C[C@@H]3N[C@H](C2)[C@@H]3c2ccc(-c3ccccc3C)cc2)cc(OC)c1
- AC50 [1]: 6.84 µM (active)

SMILES: Cc1nnc(NNS(=O)(=O)c2ccc(Cl)cc2)[nH]c1=O
- IC50 [7]: 1.57 µM (active)
- IC50 [8]: > 59.6 µM (not active)

SMILES: CCOC(=O)c1ccc(/N=C/c2nc(-c3ccccc3)oc2OC(C)=O)cc1
- IC50 [6]: 0.526 µM (active)

SMILES: O=S(=O)(Nn1cnnc1)c1ccccc1
- IC50 [7]: 3.81 µM (active)
- IC50 [8]: > 59.6 µM (not active)

SMILES: CN(CC(=O)Nc1ccc(Cl)cc1)C(=O)CCc1nc(O)c2c3c(sc2n1)CCCC3
- IC50 [3]: 30.7 µM (active)
- IC50 [4]: > 100 µM (inactive)
- IC50 [5]: 26.4 µM (active)

SMILES: CC1CN(C(=O)CCC(=O)NC(C)c2ccccc2)c2cc(Cl)ccc2O1 (configuration not stated)
- IC50 [2]: 15.1 µM (active)

SMILES: Cc1ccccc1CCNCc1cc2cccc(C)c2nc1O
- IC50 [2]: 10 µM (active)

SMILES: COc1c(C)cc(C(=O)C2CCCN(S(=O)(=O)c3c(C)noc3C)C2)cc1C (configuration not stated)
- IC50 [6]: > 50 µM (not active)

SMILES: CCOCCCn1c(C)nc2c(c1=O)c1nc3ccccc3nc1n2CCC1=CCCCC1
- EC50 [9]: > 20 µM (not active)
- EC50 [10]: > 20 µM (not active)

SMILES: CCc1ccc(S(=O)(=O)NC(CC(=O)O)c2ccccc2)cc1 (configuration not stated)
- EC50 [9]: > 20 µM (not active)
- EC50 [10]: > 20 µM (not active)

SMILES: C/C(=N/NC(=O)c1cc(Cl)ccc1O)C12CC3CC(CC(C3)C1)C2
- IC50 [2]: 8.58 µM (active)

SMILES: C=CCNc1nc2ccccc2nc1NS(=O)(=O)c1ccc(Br)cc1
- IC50 [2]: 13.2 µM (active)

Continued, values first:

- IC50 [3]: 22.5 µM (active)
- IC50 [4]: 23.8 µM (active)
- IC50 [5]: 37.8 µM (active)
SMILES: COc1ccc(C(=O)N2C(=S)NC(=O)/C2=C\c2ccc(C)cc2)cc1

- IC50 [7]: 1.05 µM (active)
- IC50 [8]: > 59.6 µM (not active)
SMILES: Cc1nc2ccccn2c1C(=O)NNC(=O)Nc1ccccc1

- IC50 [3]: 57.7 µM (active)
- IC50 [4]: 57.2 µM (active)
- IC50 [5]: 78.1 µM (active)
SMILES: Cc1c(OCC(N)=O)ccc2c(-c3ccccc3)cc(=O)oc12

- IC50 [11]: 3.39 µM (active)
- IC50 [3]: 22.5 µM (active)
- IC50 [4]: > 100 µM (inactive)
- IC50 [5]: 91.4 µM (active)
SMILES: O=C(Nc1ccc(-c2nc3ccccc3s2)c(O)c1)C1=COCCO1

- IC50 [6]: > 50 µM (not active)
SMILES: Cc1cc(C)nc(Nc2ccccc2Br)n1

- IC50 [2]: 25.1 µM (active)
SMILES: COc1ccc(NC(C)(C)c2nnnn2-c2c(C)cccc2C)cc1

- EC50 [12]: > 300 µM (not active)
- EC50 [13]: > 300 µM (not active)
- IC50 [3]: 13.5 µM (active)
- IC50 [4]: > 100 µM (inactive)
- IC50 [5]: 23.5 µM (active)
SMILES: Cc1ccc(/C=C(\C#N)C(=O)Nc2c(C)cccc2C)s1
